Key:
MMP9 = biological target: T1, MMP9 (Rattus norvegicus, UniProt P50282); test: Pro and active MMP9 in ankles of rats with SCW-induced arthritis by Western blot; type: in vivo; details: day 26, four hours after the AM dose, mAb-L51/82
T1 construct: Pro and active MMP9 were abundantly present in ankles of SCW-induced vehicle-treated rats; from tissue; host or cells: tibia-tarsus joints (ankles) of female Lewis rats
Protocol: Hind-limbs were skinned, severed just above the tibia-tarsus joint and below the metatarsals, and the tibia-tarsus joints (ankles) were weighed, snap frozen and pulverized on dry ice using a hammer and anvil. The pulverized tissue was suspended in 3 volumes (w:v) of ice-cold homogenization buffer containing 50 mM Tris pH 7.5, 150 mM NaCl, 5 mM EDTA, 1% Triton X100, 0.05% Brij 30, 10% dimethylsulfoxide and Complete EDTA-free Protease Inhibitor Cocktail (Roche Diagnostics). The suspended tissue was homogenized sequentially with a Kinematica AG Polytron and a Dounce homogenizer. Homogenates were centrifuged at 16,000×g for 10 min at 4° C. and the soluble fractions were saved. Dimethylsulfoxide was removed from a portion of each soluble fraction using PD MiniTrap™ G-25 desalting columns (GE Healthcare). Homogenates (0.25 mL), free of DMSO, were diluted with an equal volume of binding buffer (i.e., homogenization buffer without dimethylsufoxide) and adjusted to contain 50 μL of a 50% slurry of gelatin-conjugated sepharose. Following 2 hours of rotation at 4° C. the beads were washed twice in binding buffer and eluted in 100 μL 2×-reducing Laemmli buffer with heating to 95° C. for 5 minutes. […]

[1] = tested on: female Lewis rats with SCW-induced arthritis; test: Efficacy in rats with SCW-induced arthritis (ankle thickness, clinical scores); type: in vivo, rat
Protocol: To induce arthritis, Female Lewis (LEW/N) rats, 5-6 weeks of age (80-100 g) were injected (i.p.) with SCW PG-PS as described above. Eighteen days later, arthritis was well established. Calipers were used to measure the width (anterior to posterior surface) of the left and right hind ankles of each rat. Each ankle was measured 3 times and averaged, and treatment groups were randomized based on ankle thickness (Table 6). Commencing on day 18, randomized groups of arthritic rats (n=5 rats/group) received vehicle or 5, 20, or 50 mg/kg Example 2 BID by oral gavage. Vehicle consisted of an aqueous mixture containing 2% (v:v) N-methylpyrrolidone, 5% (v:v) glycerine, and 20% (w:v) captisol. Treatment continued daily through the morning of day 26.
By day 18 mean ankle thickness was increased an average of >4.4 mm compared to disease free rats. Rats treated with vehicle alone continued to gradually develop a more severe arthritis based on ankle thickness measurements over the eight-day treatment period (Table 6). […] By day 26, the disease associated increase in ankle thickness had been reduced 27, 37, and 46 percent by 5, 20, and 50 mg/kg Example 2, respectively.
Hind paw inflammation clinical scores were assigned based on swelling and erythema.

T1 sequence (P50282 108-708): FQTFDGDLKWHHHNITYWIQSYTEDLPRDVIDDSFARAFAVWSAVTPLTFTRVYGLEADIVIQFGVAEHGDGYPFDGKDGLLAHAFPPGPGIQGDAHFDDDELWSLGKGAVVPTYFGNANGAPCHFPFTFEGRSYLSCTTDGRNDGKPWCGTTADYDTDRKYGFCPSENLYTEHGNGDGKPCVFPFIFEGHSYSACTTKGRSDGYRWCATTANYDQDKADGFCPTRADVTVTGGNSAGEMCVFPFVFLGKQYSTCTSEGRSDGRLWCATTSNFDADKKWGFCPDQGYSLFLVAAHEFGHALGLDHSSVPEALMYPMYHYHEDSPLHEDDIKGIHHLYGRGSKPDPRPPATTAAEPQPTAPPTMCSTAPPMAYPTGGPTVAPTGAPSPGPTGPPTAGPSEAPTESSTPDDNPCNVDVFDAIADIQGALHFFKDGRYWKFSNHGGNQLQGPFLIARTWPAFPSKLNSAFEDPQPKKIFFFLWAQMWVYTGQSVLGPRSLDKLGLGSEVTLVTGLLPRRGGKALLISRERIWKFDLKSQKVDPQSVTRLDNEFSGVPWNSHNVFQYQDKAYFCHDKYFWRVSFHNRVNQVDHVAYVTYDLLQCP

Cc1nc(C)c(-c2csc(Nc3cc(S(N)(=O)=O)ccc3OC(C)C)n2)s1 [Example 2, 3-(2′,4′-Dimethyl-[4,5′]bithiazolyl-2-ylamino)-4-isopropoxy-benzenesulfonamide.HBr]
abundance of proMMP9 in ankles (MMP9): did not reduce
ankle thickness measurements ([1]; 5, 20, 50 mg/kg BID oral gavage Day 18-26): dose-dependent decrease
clinical score measurements ([1]; 5, 20, 50 mg/kg BID, significant effects emerging at the 20 mg/kg dose): dose dependent decrease

— patent US8883473B2, “Methods of treatment using allosteric processing inhibitors for matrix metalloproteinases” (Janssen Pharmaceutica N.V., priority 2011, dated 2014)
